From US10457677B2 (priority 2015, dated 2019) come the findings set out here.

For test [1], the target named is purified human recombinant ATM (ataxia telangiectasia mutated), full length (Homo sapiens (Human), UniProt Q13315). Nature of the test: ATM kinase assay - determination of ATM inhibition (IC50 ATM), TR-FRET. The format is biochemical. In a few lines: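 Full-length enzyme, expressed in a mammalian cell line, pre-incubated 15 min with inhibitor in 25 mM HEPES pH 8.0, 10 mM Mg(CH3COO)2, 1 mM MnCl2, 0,1% BSA, 0,01% Brij 35, 5 mM DTT. Full-length cmyc-p53 (Sf21-expressed) and ATP then added, 30-35 min at 22° C. EDTA stop; p53 S15 phosphorylation read by TR-FRET antibodies.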
Background: TR-FRET usually uses a lanthanide donor and a delayed reading to cut background.

For test [2], the system named is phosphorylation of CHK2 (phospho-Thr68) in HCT116 cells. Nature of the test: Cellular pCHK2 assay: bleomycin-induced phosphorylation of CHK2 (phospho-Thr68), immunofluorescence high-content analysis. The settings on record: Homo sapiens, HCT-116, 4 h, read-out: IC50 (pCHK2). The format is cell-based, human. An excerpt:
For the identification of substances which inhibit the phosphorylation of the protein kinase CHK2 at the amino acid threonine 68, an immunofluorescence-based “high content” analysis assay was used in HCT116 cells.
In vitro cell-based immunofluorescence assay for the identification of inhibitors of bleomycin-induced phosphorylation of CHK2 (phospho-Thr68) in the human colon carcinoma cell line HCT116:
HCT116 cells are sown out in a defined cell density in 384-well plates in culture medium (DMEM high glucose, 2 mM GlutaMax, 1 mM Na pyruvate, 10% FCS) and incubated overnight at 37° C. and 10% of CO2. On the following day, the test substances are added in a defined concentration range (1 nM to 30 μM) in combination with 10 μM bleomycin, where the concentration of the solvent DMSO is kept constant at 0.5%. […] Parallel staining of DNA with propidium iodide enables determination of the cell count. The pCHK2 signal is detected using a high-content imager (Molecular Devices IMX Ultra) and automatic image analysis using the MetaXpress software belonging to the instrument. The number of cell nuclei which have a pCHK2 signal above a defined background is determined.

For test [3], the target named is mTOR (human) (Homo sapiens (Human), UniProt P42345). Nature of the test: mTOR (human) kinase assay, [γ-33P-ATP] filter assay. The format is biochemical. The method, then:
Furthermore, the effect, in particular inhibition, of other kinases and thus the selectivity of the compounds according to the invention can be determined with the aid of the following assay:
mTOR (human) was incubated with 50 mM HEPES pH 7.5, 1 mM EGTA, 0.01% Tween 20, 2 mg/ml of the substrate, 3 mM MnCl2 and [γ-^33P-ATP] (specific activity approximately 500 cpm/pmol, concentration as necessary). The reaction was initiated by addition of MgATP solution. After incubation at room temperature for 40 minutes, the reaction was stopped by addition of 3% phosphoric acid. 10 μl of the reaction solution were then transferred dropwise onto a P30 filtermat and washed three times for 5 min in 75 mM phosphoric acid and once in methanol, dried and evaluated by means of liquid scintillation counting.

For test [4], the target named is PI3K p110α/p85α (human) (Homo sapiens (Human), UniProt P42336). Nature of the test: PI3K p110α/p85α (human), non-radioactive assay (HTRF). The format is biochemical. Particulars: for IC50: read-out: IC50 (PI3Kalpha). The method, then:
PI3K p110α/p85α (Human), Non-radioactive Assay
(§1) PI3K p110α/p85α (human) was incubated in an assay buffer comprising 10 μM phosphati-dylinositol 4,5-bisphosphate and MgATP (concentration as necessary). The reaction was initiated by addition of MgATP solution. After incubation at room temperature for 40 minutes, the reaction was stopped by addition of a solution consisting of EDTA and biotinylated phosphatidylinositol 3,4,5-trisphosphate. Finally, the detection buffer, consisting of a europium-labelled anti-GST monoclonal antibody, a GST-labelled GRP1 PH domain and streptavidin allophycocyanin, was added. The plate was read out via homogeneous time-resolved fluorescence (HTRF) and the corresponding signals were evaluated via the formula HTRF=10000×(Em665nm/Em620nm).

The target of test [5] is PI3K p110δ/p85α (human) (Homo sapiens (Human), UniProt O00329). The test can be described thus: PI3K p110δ/p85α (human), non-radioactive assay (HTRF). The format is biochemical. Particulars: for IC50: read-out: IC50 (PI3Kdelta). The method, then:
PI3K p110δ/p85α (Human), Non-radioactive Assay
as §1, with “p110δ/p85α” for “p110α/p85α”, “After an” for “After”, “incubation time of 30 min” for “incubation”, “temperature,” for “temperature for 40 minutes,”

Test [6] deals with PI3K (p120γ) (human) (Homo sapiens (Human), UniProt P48736). Nature of the test: PI3K (p120γ) (human), non-radioactive assay (HTRF). The settings on record: for IC50: read-out: IC50 (PI3Kgamma); for ratio IC50 (ATM) vs PI3Kgamma, selectivity with respect to PI3Kgamma: as printed:
The format is biochemical. Here is the method: PI3K (p120γ) (Human), Non-radioactive Assay
as §1, with “(p120γ)” for “p110α/p85α”, “After an” for “After”, “incubation time of 30 min” for “incubation”, “temperature,” for “temperature for 40 minutes,”, “HTRF=10000×(Em665nm/Em620nm). • MgATP=magnesium 5′-O—[hydroxy({[(hydroxyphosphinato)oxy]phosphinato}oxy)phosphoryl]adenosine • MgCl2=magnesium dichloride • EGTA=ethylene glycol bis(aminoethyl ether) N,N,N′,N′-tetraacetic acid • Tween 20=polysorbate 20 Medicament/pharmaceutical Composition” for “HTRF=10000×(Em665nm/Em620nm).”

Test [7] addresses PI3K p110β/p85α (human) (Homo sapiens (Human), UniProt P42338). Nature of the test: PI3K p110β/p85α (human), non-radioactive assay (HTRF). The format is biochemical. Particulars: IC50 (ATM) at least 2000 times higher compared with IC50 (PI3Kbeta). Here is the method: PI3K p110β/p85α (Human), Non-radioactive Assay
as §1, with “p110β/p85α” for “p110α/p85α”, “After an” for “After”, “incubation time of 30 min” for “incubation”, “temperature,” for “temperature for 40 minutes,”

Where two headings read alike, the source gives them in different places.

Chain of PI3K p110δ/p85α (human) (O00329 whole entry): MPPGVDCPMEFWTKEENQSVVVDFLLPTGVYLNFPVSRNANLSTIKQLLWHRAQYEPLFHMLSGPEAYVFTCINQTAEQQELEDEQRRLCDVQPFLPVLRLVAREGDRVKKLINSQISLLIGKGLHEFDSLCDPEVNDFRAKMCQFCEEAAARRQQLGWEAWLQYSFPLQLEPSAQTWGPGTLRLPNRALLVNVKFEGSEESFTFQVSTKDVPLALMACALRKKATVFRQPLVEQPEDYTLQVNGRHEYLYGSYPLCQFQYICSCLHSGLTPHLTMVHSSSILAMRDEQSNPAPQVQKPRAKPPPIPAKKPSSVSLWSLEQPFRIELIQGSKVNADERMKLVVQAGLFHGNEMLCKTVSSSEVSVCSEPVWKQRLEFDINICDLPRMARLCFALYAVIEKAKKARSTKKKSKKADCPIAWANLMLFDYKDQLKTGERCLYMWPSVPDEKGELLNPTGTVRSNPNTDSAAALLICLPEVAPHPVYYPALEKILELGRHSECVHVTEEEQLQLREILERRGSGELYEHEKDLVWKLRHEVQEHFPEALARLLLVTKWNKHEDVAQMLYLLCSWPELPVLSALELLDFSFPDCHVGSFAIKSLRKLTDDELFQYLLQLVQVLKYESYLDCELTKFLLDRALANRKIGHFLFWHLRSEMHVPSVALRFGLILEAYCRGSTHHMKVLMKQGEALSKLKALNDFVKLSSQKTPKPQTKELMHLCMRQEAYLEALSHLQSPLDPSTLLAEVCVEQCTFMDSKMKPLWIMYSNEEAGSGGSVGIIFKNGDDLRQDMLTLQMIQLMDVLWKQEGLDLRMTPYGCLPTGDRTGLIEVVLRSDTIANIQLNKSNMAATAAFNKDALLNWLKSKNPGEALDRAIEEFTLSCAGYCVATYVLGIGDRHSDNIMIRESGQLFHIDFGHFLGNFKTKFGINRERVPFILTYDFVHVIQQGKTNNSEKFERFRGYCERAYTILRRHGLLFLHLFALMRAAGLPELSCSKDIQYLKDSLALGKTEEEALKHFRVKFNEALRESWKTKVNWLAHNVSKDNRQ
Chain of PI3K p110δ/p85α (human) (P27986 whole entry partner): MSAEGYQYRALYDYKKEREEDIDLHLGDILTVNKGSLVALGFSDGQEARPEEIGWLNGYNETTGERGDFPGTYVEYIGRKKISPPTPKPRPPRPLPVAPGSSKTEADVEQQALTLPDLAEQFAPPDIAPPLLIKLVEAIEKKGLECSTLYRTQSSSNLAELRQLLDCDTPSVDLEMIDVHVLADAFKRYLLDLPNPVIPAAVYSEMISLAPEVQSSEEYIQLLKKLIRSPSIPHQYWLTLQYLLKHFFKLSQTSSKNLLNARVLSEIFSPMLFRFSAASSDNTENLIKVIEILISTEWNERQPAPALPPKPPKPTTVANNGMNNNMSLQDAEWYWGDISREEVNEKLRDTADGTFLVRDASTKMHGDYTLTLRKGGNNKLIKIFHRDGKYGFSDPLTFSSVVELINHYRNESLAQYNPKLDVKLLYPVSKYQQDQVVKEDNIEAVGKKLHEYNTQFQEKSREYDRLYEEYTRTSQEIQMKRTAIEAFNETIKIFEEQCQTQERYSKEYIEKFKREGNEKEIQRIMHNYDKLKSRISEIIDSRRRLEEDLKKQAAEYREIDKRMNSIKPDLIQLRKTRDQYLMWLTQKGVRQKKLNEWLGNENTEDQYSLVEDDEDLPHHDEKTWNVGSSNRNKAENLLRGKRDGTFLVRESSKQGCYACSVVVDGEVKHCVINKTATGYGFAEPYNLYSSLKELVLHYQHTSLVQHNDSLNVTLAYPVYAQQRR
Chain of PI3K p110β/p85α (human) (P42338 whole entry): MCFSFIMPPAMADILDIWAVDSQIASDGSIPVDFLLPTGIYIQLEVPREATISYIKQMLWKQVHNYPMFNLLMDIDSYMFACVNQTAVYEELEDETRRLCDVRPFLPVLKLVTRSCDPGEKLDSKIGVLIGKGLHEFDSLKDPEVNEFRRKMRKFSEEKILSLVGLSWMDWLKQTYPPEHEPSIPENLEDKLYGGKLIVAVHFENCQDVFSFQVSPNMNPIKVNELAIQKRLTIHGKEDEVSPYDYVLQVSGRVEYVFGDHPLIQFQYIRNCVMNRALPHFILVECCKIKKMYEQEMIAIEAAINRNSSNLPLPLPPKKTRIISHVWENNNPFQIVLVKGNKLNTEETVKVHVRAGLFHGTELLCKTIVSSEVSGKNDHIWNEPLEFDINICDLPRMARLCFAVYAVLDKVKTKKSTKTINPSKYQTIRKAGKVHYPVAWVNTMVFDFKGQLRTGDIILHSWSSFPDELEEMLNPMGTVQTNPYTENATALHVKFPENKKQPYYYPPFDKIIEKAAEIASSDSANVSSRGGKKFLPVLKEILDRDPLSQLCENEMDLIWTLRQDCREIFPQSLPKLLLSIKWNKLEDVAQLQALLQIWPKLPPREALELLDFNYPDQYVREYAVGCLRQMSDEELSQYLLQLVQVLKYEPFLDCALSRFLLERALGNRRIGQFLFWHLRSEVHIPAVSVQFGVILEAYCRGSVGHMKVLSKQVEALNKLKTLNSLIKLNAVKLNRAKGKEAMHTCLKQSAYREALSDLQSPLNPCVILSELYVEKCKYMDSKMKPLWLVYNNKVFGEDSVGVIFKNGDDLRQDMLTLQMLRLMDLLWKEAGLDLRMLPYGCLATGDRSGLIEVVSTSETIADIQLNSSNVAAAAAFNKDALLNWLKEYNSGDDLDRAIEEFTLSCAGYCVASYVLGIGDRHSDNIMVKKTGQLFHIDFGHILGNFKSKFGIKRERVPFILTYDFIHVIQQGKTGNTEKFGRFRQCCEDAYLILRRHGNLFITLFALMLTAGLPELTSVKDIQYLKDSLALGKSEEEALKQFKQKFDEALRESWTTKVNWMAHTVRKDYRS
Chain of PI3K p110β/p85α (human) (P27986 whole entry partner): as the sequence (P27986 whole entry partner) above
Chain of PI3K (p120γ) (human) (P48736 whole entry): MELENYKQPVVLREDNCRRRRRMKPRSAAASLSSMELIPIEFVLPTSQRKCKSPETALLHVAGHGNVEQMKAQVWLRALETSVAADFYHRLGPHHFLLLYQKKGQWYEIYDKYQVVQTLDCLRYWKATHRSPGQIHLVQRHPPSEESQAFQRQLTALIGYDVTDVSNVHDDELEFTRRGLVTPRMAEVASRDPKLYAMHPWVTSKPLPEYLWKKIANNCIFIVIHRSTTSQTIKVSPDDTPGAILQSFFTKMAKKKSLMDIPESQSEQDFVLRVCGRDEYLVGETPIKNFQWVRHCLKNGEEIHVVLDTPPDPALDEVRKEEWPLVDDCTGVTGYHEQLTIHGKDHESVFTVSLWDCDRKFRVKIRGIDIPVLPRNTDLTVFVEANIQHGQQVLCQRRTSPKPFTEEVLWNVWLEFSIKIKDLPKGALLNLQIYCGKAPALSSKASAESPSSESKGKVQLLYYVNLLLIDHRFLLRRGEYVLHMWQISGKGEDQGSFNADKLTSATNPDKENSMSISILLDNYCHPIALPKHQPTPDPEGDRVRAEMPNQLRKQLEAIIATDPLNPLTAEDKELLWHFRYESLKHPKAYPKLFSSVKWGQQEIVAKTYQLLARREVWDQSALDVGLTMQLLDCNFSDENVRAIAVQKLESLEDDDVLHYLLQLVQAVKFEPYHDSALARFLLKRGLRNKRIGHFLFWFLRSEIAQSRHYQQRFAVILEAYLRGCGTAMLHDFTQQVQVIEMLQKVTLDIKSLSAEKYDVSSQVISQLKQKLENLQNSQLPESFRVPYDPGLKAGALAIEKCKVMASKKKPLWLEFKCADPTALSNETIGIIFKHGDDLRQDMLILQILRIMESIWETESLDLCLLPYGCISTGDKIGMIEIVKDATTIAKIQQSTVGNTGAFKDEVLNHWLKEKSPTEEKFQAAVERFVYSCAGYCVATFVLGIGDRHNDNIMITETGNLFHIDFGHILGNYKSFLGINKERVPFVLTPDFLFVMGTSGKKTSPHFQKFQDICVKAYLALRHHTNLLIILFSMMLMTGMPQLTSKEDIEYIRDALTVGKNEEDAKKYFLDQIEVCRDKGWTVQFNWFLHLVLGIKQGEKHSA
Chain of PI3K p110α/p85α (human) (P42336 whole entry): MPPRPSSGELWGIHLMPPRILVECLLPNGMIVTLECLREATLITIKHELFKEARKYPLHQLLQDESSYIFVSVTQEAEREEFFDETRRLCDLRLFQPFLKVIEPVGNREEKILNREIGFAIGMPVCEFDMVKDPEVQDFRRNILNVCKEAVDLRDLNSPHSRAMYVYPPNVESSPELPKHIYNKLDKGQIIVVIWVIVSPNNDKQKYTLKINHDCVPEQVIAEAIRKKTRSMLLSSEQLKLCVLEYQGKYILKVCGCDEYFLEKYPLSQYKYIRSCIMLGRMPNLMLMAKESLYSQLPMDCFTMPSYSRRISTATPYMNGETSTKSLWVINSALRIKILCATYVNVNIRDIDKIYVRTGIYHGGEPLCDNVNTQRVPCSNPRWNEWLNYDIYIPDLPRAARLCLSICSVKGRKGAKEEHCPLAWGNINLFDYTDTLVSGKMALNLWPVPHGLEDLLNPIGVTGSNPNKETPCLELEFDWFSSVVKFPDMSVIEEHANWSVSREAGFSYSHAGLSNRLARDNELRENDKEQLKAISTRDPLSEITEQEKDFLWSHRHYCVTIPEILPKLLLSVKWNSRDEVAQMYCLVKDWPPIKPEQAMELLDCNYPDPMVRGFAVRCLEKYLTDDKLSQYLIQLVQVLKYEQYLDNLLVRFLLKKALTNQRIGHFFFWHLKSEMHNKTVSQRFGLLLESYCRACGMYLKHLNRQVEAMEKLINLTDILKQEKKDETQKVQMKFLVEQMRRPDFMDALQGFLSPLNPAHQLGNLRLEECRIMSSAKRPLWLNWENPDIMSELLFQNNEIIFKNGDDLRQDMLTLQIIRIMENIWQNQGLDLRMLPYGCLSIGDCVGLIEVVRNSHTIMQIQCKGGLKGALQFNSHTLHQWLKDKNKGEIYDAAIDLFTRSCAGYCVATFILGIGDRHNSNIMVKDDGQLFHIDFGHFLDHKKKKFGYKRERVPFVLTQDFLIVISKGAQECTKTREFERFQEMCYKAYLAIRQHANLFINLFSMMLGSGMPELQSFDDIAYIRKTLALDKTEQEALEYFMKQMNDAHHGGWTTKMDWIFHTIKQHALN
Chain of PI3K p110α/p85α (human) (P27986 whole entry partner): as the sequence (P27986 whole entry partner) above

`COc1cc2ncc3c(c2cc1-c1cn[nH]c1)n(-c1ccncc1C)c(=O)n3C` [Compound Example 19, 7-Methoxy-3-methyl-1-(3-methylpyridin-4-yl)-8-(1H-pyrazol-4-yl)-1,3-dihydro-imidazo[4,5-c]quinolin-2-one]: the IC50 in test [1] is < 10 nM; in test [1] (10 μM ATP, substrate p53), < 10 nM; in test [2] it was < 200 nM; in test [3], > 5 µM; in test [4] it was > 30 µM; in test [5], > 30 µM. Moreover, the IC50 in test [6] was > 30 µM.

Take `COc1cc2ncc3c(c2cc1-c1cnn(C)c1)n(-c1c(F)cncc1F)c(=O)n3C` [Compound Example 22, 1-(3,5-Difluoropyridin-4-yl)-7-methoxy-3-methyl-8-(1-methyl-1H-pyrazol-4-yl)-1,3-dihydroimidazo[4,5-c] quinolin-2-one]: the IC50 in test [1] was < 1 nM; in test [1] (10 μM ATP, substrate p53), < 1 nM; in test [2], < 200 nM; in test [3], > 30 µM; in test [4], > 30 µM; in test [5], > 30 µM. Moreover, the IC50 in test [6] was > 30 µM.

For the molecule `CCn1cc(-c2cc3c(cc2OC)ncc2c3n(-c3c(F)cncc3F)c(=O)n2C)cn1` [Compound Example 26, 1-(3,5-Difluoropyridin-4-yl)-8-(1-ethyl-1H-pyrazol-4-yl)-7-methoxy-3-methyl-1,3-dihydroimidazo[4,5-c] quinolin-2-one], the IC50 was < 1 nM in test [1]; < 1 nM in test [1] (10 μM ATP, substrate p53); < 200 nM in test [2]; > 30 µM in test [3]; > 30 µM in test [4]; > 30 µM in test [5]. Also, the IC50 in test [6] is > 30 µM.

Consider `COc1cc2ncc3c(c2cc1-c1cn[nH]c1)n(-c1ccncc1OC)c(=O)n3C` [Compound Example 32, 7-Methoxy-1-(3-methoxy-pyridin-4-yl)-3-methyl-8-(1H-pyrazol-4-yl)-1,3-dihydroimidazo[4,5-c]-quinolin-2-one], for which the IC50 in test [1] was < 10 nM; in test [1] (10 μM ATP, substrate p53), < 10 nM; in test [2] it was < 200 nM; in test [3], > 10 µM; in test [4] it was > 30 µM; in test [5], > 30 µM. Further, in test [6], the IC50 was > 30 µM.

As to `COc1cc2ncc3c(c2cc1-c1cn(C)nc1C)n(-c1c(C)cncc1F)c(=O)n3C` [Compound Example 39, 8-(1,3-Dimethyl-1H-pyrazol-4-yl)-1-(3-fluoro-5-methyl-pyridin-4-yl)-7-methoxy-3-methyl-1,3-dihydroimidazo-[4,5-c]quinolin-2-one], the IC50 in test [1] is < 1 nM; in test [1] (10 μM ATP, substrate p53), < 1 nM; in test [2], 200 to 1000 nM; in test [3], > 30 µM; in test [4], > 30 µM; in test [5] it was > 30 µM. Further, in test [6], the IC50 is > 30 µM.

`CCc1cncc(C)c1-n1c(=O)n(C)c2cnc3cc(OC)c(-c4cnn(C)c4)cc3c21` [Compound Example 54, 1-(3-Ethyl-5-methylpyridin-4-yl)-7-methoxy-3-methyl-8-(1-methyl-1H-pyrazol-4-yl)-1,3-dihydroimidazo[4,5-c]-quinolin-2-one]: the IC50 was < 10 nM in test [1]; < 10 nM in test [1] (10 μM ATP, substrate p53); 200 to 1000 nM in test [2]; > 30 µM in test [3]; > 30 µM in test [4]; > 30 µM in test [5]. For the same molecule, in test [6], the IC50 was > 30 µM.

`COc1cc2ncc3[nH]c(=O)n(-c4ncc(F)cc4F)c3c2cc1-c1cn(C)nc1C` [compound 108, 1-(3,5-Difluoropyridin-2-yl)-8-(1,3-dimethyl-1H-pyrazol-4-yl)-7-methoxy-1,3-dihydroimidazo[4,5-c]-quinolin-2-one]: the IC50 was < 1 nM in test [1] (10 μM ATP, substrate p53) and 200 to 1000 nM in test [2]. In addition, the “ratio IC50 (ATM) vs PI3Kalpha, selectivity with respect to PI3Kalpha” value in test [4] (as printed:) is given as “at least 2000 times”. In test [7], the “fold selectivity for ATM over PI3Kbeta (IC50 PI3Kbeta / IC50 ATM)” value (from here on “fold selectivity … (IC50 PI3Kbeta / IC50 ATM)”) was “at least 2000 times”. Also, the “ratio IC50 (ATM) vs PI3Kdelta, selectivity with respect to PI3Kdelta” value in test [5] (as printed:) is recorded as “at least 2000 times”. In test [6], the “ratio IC50 (ATM) vs PI3Kgamma, selectivity with respect to PI3Kgamma” value is given as “at least 2000 times”.

For `COc1cc2ncc3c(c2cc1-c1ccc2nc(C)[nH]c2c1)n(-c1c(F)cncc1OC)c(=O)n3C` [compound 136, 1-(3-Fluoro-5-methoxy-pyridin-4-yl)-7-methoxy-3-methyl-8-(2-methyl-3H-benzoimidazol-5-yl)-1,3-dihydroimidazo[4,5-c]-quinolin-2-one], the IC50 was < 1 nM in test [1] (10 μM ATP, substrate p53) and < 200 nM in test [2]. Moreover, the “fold selectivity … (IC50 PI3Kbeta / IC50 ATM)” value in test [7] was “at least 2000 times”. Moreover, the “ratio IC50 (ATM) vs PI3Kgamma, selectivity with respect to PI3Kgamma” value in test [6] is on record as “at least 2000 times”.

Consider `COc1ccc(-c2cc3c(cc2OC)ncc2c3n(-c3cn(C)nc3F)c(=O)n2C)cn1` [compound 159, 1-(3-Fluoro-1-methyl-1H-pyrazol-4-yl)-7-methoxy-8-(6-methoxypyridin-3-yl)-3-methyl-1,3-dihydroimidazo-[4,5-c]quinolin-2-one], for which the IC50 was < 10 nM in test [1] (10 μM ATP, substrate p53) and 1000 to 2000 nM in test [2]. The “fold selectivity … (IC50 PI3Kbeta / IC50 ATM)” value in test [7] was “at least 2000 times”.
